# Experiments:
# KOPN8 = experiment: MTT cell viability assay, KOPN8; assay type: cell-based, Human; settings: KOPN8, 14 days of treatment
# Procedure: (§1) Human leukemia cells were plated at 1×10^5 cells/ml in 24-well plates, treated with 0.25% DMSO or compounds and cultured at 37° C. for 7-14 days. Every four days, the volume corresponding to 1×10^5 cells of DMSO-treated cells was spun down and resuspended in fresh media with fresh compound. At day 0 and each four day interval, 100 μl aliquots of the cell suspension were transferred to 96-well plates in quadruplicates. The quadruplicate samples were incubated for 4 days at 37° C., and then an MTT cell proliferation assay kit (Roche) was used to measure viable cells. Absorbance was read at 570 nm using a PHERAstar (BMG) microplate reader.
# [1] = system: normal human hematopoietic hCD34+ cells; experiment: Toxicity to normal hematopoietic hCD34+ cells; assay type: cell-based
# MOLM13 = experiment: MTT cell viability assay, MOLM13; assay type: cell-based, Human; settings: MOLM13, 14 days of treatment
# Procedure: as §1
# [2] = system: MLL fusion target genes (HOXA genes, MEIS1, MEF2C), MNDA; experiment: Quantitative RT-PCR of MLL fusion target genes and MNDA; assay type: cell-based; settings: dose-dependent manner
# Procedure: Total RNA was extracted from cells using the RNeasy mini kit (QIAGEN), and then 100-2000 ng of total RNA was reverse transcribed using the High Capacity cDNA Reverse Transcription Kit (Applied Biosystems) according to the manufacturer's protocol. Real-time PCR was performed using a CFX96 Real-Time PCR Detection System (Biorad). TaqMan Gene Expression Master Mix and TaqMan Gene Expression Assays were purchased from Thermo Fisher. Relative quantification of each gene transcript was carried out using the ΔΔCt method as described in the Biorad Real-Time PCR Applications Guide.
# MV4;11 cells = experiment: Differentiation of MV4;11 cells (Cytospin/Wright-Giemsa staining); assay type: cell-based, Human; settings: 7 days of treatment
# Procedure: Cytospin/Wrigtht-Giemsa Staining
# 1×10^5 of MV4;11 cells treated with compounds or DMSO were harvested and placed in a Shandon EZ Single Cytofunnel (Thermo Fisher). Samples were centrifuged at 600 rpm for 5 min. The slides were air dried before staining with a Hema-3 kit (Thermo Fisher).
# K562 (CML cell line) = experiment: MTT cell viability assay, K562 control cell line; assay type: cell-based, Human; settings: 14 days of treatment
# Procedure: as §1
# MV4;11 = experiment: MTT cell viability assay, MV4;11; assay type: cell-based, Human; settings: MV4;11, 14 days of treatment
# Procedure: as §1
# SEM cells = experiment: MTT cell viability assay, SEM; assay type: cell-based, Human; settings: 14 days of treatment
# Procedure: as §1
# [3] = biological target: T1, ASH1L SET-BAH construct (amino acids 2069-2833) (Homo sapiens, UniProt Q9NR48); experiment: ASH1L histone methyltransferase (HMT) assay; assay type: biochemical; settings: read-out: IC50 value measured in histone methyltransferase (HMT) assay
# T1 construct: ASH1L SET-BAH construct (amino acids 2069-2833); His tag (implied only by nickel-NTA purification); made in house; host or cells: E. coli BL21(DE3) T1R
# Procedure: ASH1L SET protein was expressed as MOCR fusion proteins in E. coli BL21(DE3) T1R cells at 22° C. Transformed cells were lysed in buffer A containing 50 mM Tris (pH 7.5), 500 mM NaCl, 1 mM tris(2-carboxyethyl)phosphine (TCEP), and 20 mM imidazole. Cell debris was pelleted by centrifugation, and the supernatant was loaded on a column packed with nickel-nitrilotriacetic acid beads. The column was washed with buffer A and protein eluted with a 100 mL linear gradient up to buffer A containing 500 mM imidazole. The MOCR tag was cleaved with tobacco etch virus (TEV) protease during overnight dialysis against 50 mM Tris (pH 7.5), 100 mM NaCl, and 1 mM TCEP. Cleaved ASH1L was isolated from MOCR by repeating the nickel column purification and collecting ASH1L in the flow-through and low-imidazole fractions. ASH1L was further purified by gel filtration chromatography using a Superdex-75 column running in buffer B containing 50 mM Tris (pH 7.5), 100 mM NaCl, and 1 mM TCEP. ASH1L SET-PHD and SET-BAH proteins were purified similarly, with the following differences. […]
# Chicken mono/dinucleosomes (HMT-35-179), chicken oligo nucleosomes (HMT-35-177), and HeLa nucleosomes (HMT-35-123) were purchased from Reaction Biology. […] The P81 squares were then dried for 1 h, added to 10 mL of Ultima Gold scintillation cocktail (PerkinElmer), and analyzed using a Beckman scintillation counter.
# [4] = system: MV4;11 xenotransplantation mouse models of MLL leukemia; experiment: MV4;11 xenotransplantation mouse model of MLL leukemia; assay type: in vivo, mice; settings: i.p.
# Procedure: Immunocompromised 8-10 week-old female NSG mice were used for in vivo efficacy studies in accordance with IACUC guidelines. Luciferase expressing human MV4;11 leukemia cells (MV4;11-luc) were engrafted intravenously via tail vein injection (1×10^7 cells/animal). Five days after transplantation mice were randomly assigned to a vehicle control or a compound treatment group (6-7 animals per group). […] Body weight was measured daily, while mean luminescence signal was measured at days 6, 13 and 19 post-transplantation in all mice. […]
compound,measurement,setting,value
CC1CN(S(C)(=O)=O)CCC1n1cc(-c2cccc(C(N)=S)c2)c2ccc(N)cc21 (centres unmarked) [Compound 22],"growth inhibition / proliferation, MTT assay",KOPN8,growth inhibition
same,toxicity to normal human hematopoietic hCD34+ cells,[1],not toxic
same,"growth inhibition / proliferation, MTT assay",MOLM13,growth inhibition
same,expression level of MNDA differentiation marker,[2],increase the expression level
same,"expression of MLL fusion target genes (HOXA genes, MEIS1, MEF2C)",[2],downregulates expression
same,differentiation in MV4;11 cells,MV4;11 cells,induces differentiation
CC(C)S(=O)(=O)N1CCC(n2cc(-c3cccc(C(N)=S)c3)c3ccc(CNc4nnc(N)s4)cc32)CC1 [Compound 34],"proliferation, MTT cell viability assay",K562 (CML cell line),but not control cell line K562
same,"proliferation, MTT cell viability assay",MV4;11,inhibits proliferation
same,"proliferation, MTT cell viability assay",SEM cells,inhibits proliferation
same,"growth inhibition / proliferation, MTT assay",KOPN8,inhibits proliferation
same,"growth inhibition / proliferation, MTT assay",MOLM13,inhibits proliferation
COCCC(=O)Nc1ccc2c(-c3cccc(C(N)=S)c3)cn(C3CCN(S(C)(=O)=O)CC3)c2c1 [Compound 37],IC50,[3],750 nM
"Cl.NC(=S)c1cccc(-c2cn(C3CCN(S(=O)(=O)C(F)(F)F)CC3)c3cc(CNC(=O)C4CNC4)ccc23)c1 [Compound 59, N-((3-(3-carbamothioylphenyl)-1-(1-((trifluoromethyl)sulfonyl)piperidin-4-yl)-1H-indol-6-yl)methyl)azetidine-3-carboxamide hydrochloride salt]","leukemia progression, bioluminescence level in mice","[4]; 7 days of treatment, 40 mg/kg, q.d.",slows down leukemia progression
same,"leukemia progression, flow cytometry of hCD45+ cells in spleen","[4]; 21 days of treatment, 25 mg/kg, b.i.d.",inhibits leukemia progression
